{
  "source": "patent US6960573B2",
  "about": "“Vitamin D3 derivative and treating agent for inflammatory respiratory disease using same” (Teijin Limited, priority 1998, dated 2005)",
  "data": [
    {"test_system": "not listed separately", "assay": "Blood calcium level-elevation effect, oral administration to rats", "assay_type": "in vivo", "conditions": "ratio to 1α,25-dihydroxyvitamin D3", "text": "For example, the blood calcium level-elevation effects of compounds of the present invention in oral administration to rats, which are compared with that of 1 α,25-dihydroxyvitamin D3, are as shown below: • Compound No. 3105c, 1/>100 • Compound No.3405, 1/>100 • Compound No. 5102, 1/259 • Compound No. 5107, 1/11.", "values": [
      {"smiles": "C=C1/C(=C\\C=C2/CCC[C@@]3(C)C2CC[C@@H]3[C@H](C)CCC[C@@](C)(O)C(=O)N(C)C)C[C@@H](O)C[C@@H]1O", "note": "(some centres unmarked) [Compound No. 5102]", "blood calcium level-elevation effect compared with that of 1α,25-dihydroxyvitamin D3": "1/259"},
      {"smiles": "C=C1/C(=C\\C=C2/CCC[C@@]3(C)C2CC[C@@H]3[C@H](C)CCC[C@@](C)(O)C(C)=O)C[C@@H](O)C[C@@H]1O", "note": "(some centres unmarked) [Compound No. 5107]", "blood calcium level-elevation effect compared with that of 1α,25-dihydroxyvitamin D3": "1/11"}
    ]},
    {"test_system": "hamster LPS-induced pneumonia model", "assay": "Neutrophilic infiltration suppressing effect, hamster LPS-induced pneumonia model", "assay_type": "in vivo, golden hamster", "conditions": "Mesocricetus auratus, Neutrophil, inhaled or nasal; dose 4 μg/kg, administered infratracheally just after LPS inhalation; neutrophils in washing after 24 hr; read-out: % Suppression (number of neutrophils, based on the control)", "protocol": "(§1) A male golden hamster was placed in an inhalation chamber (volume: 12 liter) and allowed to inhale LPS (nebulizer filled concentration: 2.0 mg/ml) generated by an ultrasonic nebulizer for 30 min to cause pneumonia. Just after the inhalation of the LPS, a treating agent of the present invention was administered infratracheally at a dosage of 1 to 20 μg/kg under halothane anesthesia. After 24 hr, tracheal branches and pulmonary alveoli were washed, and the number of neutrophils in the washing was determined. Using the number of neutrophils obtained in the absence of the treating agent of the present invention as the control, the decreasing rates of the numbers of neutrophils were expressed in terms of percent suppression based on the control.", "units": {"inhibition in vivo at 0.004 mg/kg": "%"}, "values": [
      {"smiles": "C=C1/C(=C\\C=C2/CCC[C@@]3(C)C2CC[C@@H]3[C@H](C)CC2CC(C)(C)C(=O)O2)C[C@@H](O)C[C@@H]1O", "note": "(some centres unmarked) [2102a]", "inhibition in vivo at 0.004 mg/kg": "> 40"},
      {"smiles": "C=C1/C(=C\\C=C2/CCC[C@@]3(C)C2CC[C@@H]3[C@H](C)CC2CC3(CC3)C(=O)O2)C[C@@H](O)C[C@@H]1O", "note": "(some centres unmarked) [2105a]", "inhibition in vivo at 0.004 mg/kg": "> 40"},
      {"smiles": "C=C1/C(=C\\C=C2/CCC[C@@]3(C)C2CC[C@@H]3[C@H](C)/C=C2\\CCC(C)(F)C2=O)C[C@@H](O)C[C@@H]1O", "note": "(some centres unmarked) [3105d]", "inhibition in vivo at 0.004 mg/kg": "> 40"},
      {"smiles": "C=C1/C(=C\\C=C2/CCC[C@@]3(C)C2CC[C@@H]3[C@H](C)CC2CCC(=O)C2)C[C@@H](O)C[C@@H]1O", "note": "(some centres unmarked) [4101a]", "inhibition in vivo at 0.004 mg/kg": "20 to 40"},
      {"smiles": "C=C1/C(=C\\C=C2/CCC[C@@]3(C)C2CC[C@@H]3C(C)/C=C2\\CCC(=O)C2(C)O)C[C@@H](O)C[C@@H]1O", "note": "(some centres unmarked) [4203b]", "inhibition in vivo at 0.004 mg/kg": "20 to 40"},
      {"smiles": "C=C1/C(=C\\C=C2/CCC[C@@]3(C)C2CC[C@@H]3[C@H](C)C[C@H]2C=C(C)C(=O)O2)C[C@@H](O)C[C@@H]1O", "note": "(some centres unmarked) [Compound No. 1107b]", "inhibition in vivo at 0.004 mg/kg": "< 20"},
      {"smiles": "C=C1/C(=C\\C=C2/CCC[C@@]3(C)C2CC[C@@H]3[C@H](C)/C=C2\\CCN(C)C2=O)C[C@@H](O)C[C@@H]1O", "note": "(some centres unmarked) [Compound No. 3405]", "inhibition in vivo at 0.004 mg/kg": "> 40"}
    ]},
    {"test_system": "hamster LPS-induced pneumonia model", "assay": "Neutrophilic infiltration suppressing effect, hamster LPS-induced pneumonia model", "assay_type": "in vivo, golden hamster", "conditions": "Mesocricetus auratus, Neutrophil, inhaled or nasal; dose 20 μg/kg, administered infratracheally just after LPS inhalation; neutrophils in washing after 24 hr; read-out: % Suppression (number of neutrophils, based on the control)", "protocol": "as §1", "units": {"inhibition in vivo at 0.02 mg/kg": "%"}, "values": [
      {"smiles": "C=C1/C(=C\\C=C2/CCC[C@@]3(C)C2CC[C@@H]3[C@H](C)CC2=CC(=O)CC2)C[C@@H](O)C[C@@H]1O", "note": "(some centres unmarked) [Compound No. 4301]", "inhibition in vivo at 0.02 mg/kg": "< 20"},
      {"smiles": "C=C1/C(=C\\C=C2/CCC[C@@]3(C)C2CC[C@@H]3[C@H](C)CCC[C@@](C)(O)C(=O)N(C)C)C[C@@H](O)C[C@@H]1O", "note": "(some centres unmarked) [Compound No. 5102]", "inhibition in vivo at 0.02 mg/kg": "> 40"},
      {"smiles": "C=C1/C(=C\\C=C2/CCC[C@@]3(C)C2CC[C@@H]3[C@H](C)CCC[C@@](C)(O)C(=O)N2CCCCC2)C[C@@H](O)C[C@@H]1O", "note": "(some centres unmarked) [Compound No. 5106]", "inhibition in vivo at 0.02 mg/kg": "20 to 40"},
      {"smiles": "C=C1/C(=C\\C=C2/CCC[C@@]3(C)C2CC[C@@H]3[C@H](C)CCC[C@@](C)(O)C(C)=O)C[C@@H](O)C[C@@H]1O", "note": "(some centres unmarked) [Compound No. 5107]", "inhibition in vivo at 0.02 mg/kg": "> 40"},
      {"smiles": "C=C1/C(=C\\C=C2/CCC[C@@]3(C)C2CC[C@@H]3[C@H](C)CCC[C@@](C)(O)C(C)(C)O)C[C@@H](O)C[C@@H]1O", "note": "(some centres unmarked) [compound 5109]", "inhibition in vivo at 0.02 mg/kg": "20 to 40"}
    ]}
  ]
}
